Key:
[1] = biological target: T1, Solute carrier organic anion transporter family member 2B1 (Homo sapiens, UniProt O94956, H618Q); assay: Ratio of Vmax to Km for human OATP2B1 H618Q mutant low affinity site expressed in Xenopus laevis oocytes assessed as transporter-mediated drug uptake per 15 mins per oocyte after 15 mins by Eadie-Hofstee plot method; assay type: ADME, cell-based; settings: 0.25 h
[2] = biological target: T2, Solute carrier organic anion transporter family member 2B1 (Homo sapiens, UniProt O94956); assay: Ratio of Vmax to Km for human OATP2B1 low affinity site expressed in Xenopus laevis oocytes assessed as transporter-mediated drug uptake per 15 mins per oocyte after 15 mins by Eadie-Hofstee plot method; assay type: ADME, cell-based; settings: 0.25 h
T2 sequence (O94956 whole entry): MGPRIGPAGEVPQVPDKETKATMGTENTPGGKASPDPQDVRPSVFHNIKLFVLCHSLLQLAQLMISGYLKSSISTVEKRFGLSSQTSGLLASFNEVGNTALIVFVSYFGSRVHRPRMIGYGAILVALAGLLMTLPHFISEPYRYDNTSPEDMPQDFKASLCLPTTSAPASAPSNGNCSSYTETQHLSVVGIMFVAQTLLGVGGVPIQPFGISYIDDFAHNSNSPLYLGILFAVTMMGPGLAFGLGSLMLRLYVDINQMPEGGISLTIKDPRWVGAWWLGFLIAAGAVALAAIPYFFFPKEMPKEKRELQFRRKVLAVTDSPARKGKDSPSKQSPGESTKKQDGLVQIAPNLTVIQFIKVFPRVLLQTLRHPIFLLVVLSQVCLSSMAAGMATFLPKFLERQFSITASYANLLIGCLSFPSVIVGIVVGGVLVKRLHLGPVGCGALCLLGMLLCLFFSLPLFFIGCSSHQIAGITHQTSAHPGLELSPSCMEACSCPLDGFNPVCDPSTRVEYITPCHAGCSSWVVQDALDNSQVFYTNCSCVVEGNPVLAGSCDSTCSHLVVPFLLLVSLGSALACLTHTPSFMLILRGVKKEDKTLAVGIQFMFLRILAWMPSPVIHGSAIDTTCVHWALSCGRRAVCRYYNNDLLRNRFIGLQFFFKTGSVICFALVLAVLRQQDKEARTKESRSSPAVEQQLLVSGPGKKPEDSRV

[3] = biological target: T2, Solute carrier organic anion transporter family member 2B1; assay: Drug uptake assessed as OATP2B1 high affinity site (unknown origin)-mediated drug uptake in presence of 1 mM sulfasalazine relative to control; assay type: ADME
[4] = biological target: Solute carrier organic anion transporter family member 2B1 (Homo sapiens, UniProt O94956, H219Q); assay: Drug uptake assessed as human OATP2B1 H219Q mutant expressed in Xenopus laevis oocyte mediated drug accumulation at 0.005 to 50 uM after 15 mins by LC-MS/MS analysis relative to wild type protein; assay type: ADME; settings: 0.25 h
Sequence of Solute carrier organic anion transporter family member 2B1 (Homo sapiens, UniProt O94956, H219Q) (O94956 whole entry H219Q/T392I): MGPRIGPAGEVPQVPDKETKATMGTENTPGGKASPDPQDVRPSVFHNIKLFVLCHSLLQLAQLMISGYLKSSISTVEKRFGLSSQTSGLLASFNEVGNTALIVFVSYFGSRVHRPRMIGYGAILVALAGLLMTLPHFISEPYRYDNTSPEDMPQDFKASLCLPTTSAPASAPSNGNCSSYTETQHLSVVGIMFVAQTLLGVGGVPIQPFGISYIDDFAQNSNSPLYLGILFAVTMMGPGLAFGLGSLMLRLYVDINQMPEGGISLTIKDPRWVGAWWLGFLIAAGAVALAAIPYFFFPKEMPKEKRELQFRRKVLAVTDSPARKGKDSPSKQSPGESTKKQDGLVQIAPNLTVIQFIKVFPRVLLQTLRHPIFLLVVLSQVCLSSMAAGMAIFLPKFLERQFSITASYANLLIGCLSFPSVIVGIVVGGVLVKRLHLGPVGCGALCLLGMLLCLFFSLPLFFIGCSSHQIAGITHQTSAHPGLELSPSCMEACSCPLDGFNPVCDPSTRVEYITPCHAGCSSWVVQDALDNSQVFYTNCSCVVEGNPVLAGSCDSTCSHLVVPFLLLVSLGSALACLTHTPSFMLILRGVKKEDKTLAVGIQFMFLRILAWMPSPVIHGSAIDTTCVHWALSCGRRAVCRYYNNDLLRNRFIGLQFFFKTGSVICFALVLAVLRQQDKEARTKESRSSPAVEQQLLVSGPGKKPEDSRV

[5] = biological target: T2, Solute carrier organic anion transporter family member 2B1; assay: Substrate activity at human OATP2B1 low affinity site expressed in Xenopus laevis oocytes assessed as Vmax for transporter-mediated drug accumulation per 15 mins per oocyte by Eadie-Hofstee plot method; assay type: ADME, cell-based; settings: 0.25 h
[6] = biological target: T1, Solute carrier organic anion transporter family member 2B1; assay: Drug uptake assessed as human OATP2B1 H618Q mutant expressed in Xenopus laevis oocyte mediated drug accumulation at 0.005 uM after 15 mins by LC-MS/MS analysis relative to wild type protein; assay type: ADME; settings: 0.25 h
[7] = tested on: OATP2B1 H579Q/H618Q double mutant, high affinity site; assay: Substrate activity at human OATP2B1 H579Q/H618Q double mutant high affinity site expressed in Xenopus laevis oocytes assessed as Km for transporter-mediated drug accumulation after 15 mins by Eadie-Hofstee plot method; assay type: ADME, cell-based
[8] = Ratio of Vmax to Km for human OATP2B1 H618Q/H579Q double mutant low affinity site expressed in Xenopus laevis oocytes assessed as transporter-mediated drug uptake per 15 mins per oocyte after 15 mins by Eadie-Hofstee plot method; assay type: ADME, cell-based; settings: 0.25 h
[9] = biological target: T2, Solute carrier organic anion transporter family member 2B1; assay: Ratio of Vmax to Km for human OATP2B1 high affinity site expressed in Xenopus laevis oocytes assessed as transporter-mediated drug uptake per 15 mins per oocyte after 15 mins by Eadie-Hofstee plot method; assay type: ADME, cell-based; settings: 0.25 h
[10] = biological target: T3, Solute carrier organic anion transporter family member 2B1 (Homo sapiens, UniProt O94956, H579Q); assay: Drug uptake assessed as human OATP2B1 H579Q mutant expressed in Xenopus laevis oocyte mediated drug accumulation at 50 uM after 15 mins by LC-MS/MS analysis relative to wild type protein; assay type: ADME; settings: 0.25 h
T3 sequence (O94956 whole entry T392I/H579Q): as the sequence (O94956 whole entry H219Q/T392I) above, with Q219H, H579Q counted along it

[11] = biological target: T1, Solute carrier organic anion transporter family member 2B1; assay: Drug uptake assessed as human OATP2B1 H618Q mutant expressed in Xenopus laevis oocyte mediated drug accumulation at 0.005 to 50 uM after 15 mins by LC-MS/MS analysis relative to wild type protein; assay type: ADME; settings: 0.25 h
[12] = Substrate activity at human OATP2B1 H579Q/H618Q double mutant high affinity site expressed in Xenopus laevis oocytes assessed as Vmax for transporter-mediated drug accumulation per 15 mins per oocyte by Eadie-Hofstee plot method; assay type: ADME, cell-based; settings: 0.25 h
[13] = biological target: T1, Solute carrier organic anion transporter family member 2B1; assay: Ratio of Vmax to Km for human OATP2B1 H618Q mutant high affinity site expressed in Xenopus laevis oocytes assessed as transporter-mediated drug uptake per 15 mins per oocyte after 15 mins by Eadie-Hofstee plot method; assay type: ADME, cell-based; settings: 0.25 h
[14] = biological target: T1, Solute carrier organic anion transporter family member 2B1; assay: Substrate activity at human OATP2B1 H618Q mutant low affinity site expressed in Xenopus laevis oocytes assessed as Vmax for transporter-mediated drug accumulation per 15 mins per oocyte by Eadie-Hofstee plot method; assay type: ADME, cell-based; settings: 0.25 h
[15] = biological target: T2, Solute carrier organic anion transporter family member 2B1; assay: Drug uptake assessed as human OATP2B1 expressed in Xenopus laevis oocyte mediated drug accumulation per oocyte at 0.005 uM after 15 mins by LC-MS/MS analysis; assay type: ADME; settings: 0.25 h
[16] = Ratio of Vmax to Km for human OATP2B1 H579Q/H618Q double mutant high affinity site expressed in Xenopus laevis oocytes assessed as transporter-mediated drug uptake per 15 mins per oocyte after 15 mins by Eadie-Hofstee plot method; assay type: ADME, cell-based; settings: 0.25 h
[17] = biological target: T2, Solute carrier organic anion transporter family member 2B1; assay: Drug uptake assessed as OATP2B1 low affinity site (unknown origin)-mediated drug uptake in presence of 1 mM sulfasalazine relative to control; assay type: ADME
[18] = biological target: T2, Solute carrier organic anion transporter family member 2B1; assay: Substrate activity at human OATP2B1 high affinity site expressed in Xenopus laevis oocytes assessed as Vmax for transporter-mediated drug accumulation per 15 mins per oocyte by Eadie-Hofstee plot method; assay type: ADME, cell-based; settings: 0.25 h
[19] = Substrate activity at human OATP2B1 H618Q/H579Q double mutant low affinity site expressed in Xenopus laevis oocytes assessed as Vmax for transporter-mediated drug accumulation per 15 mins per oocyte by Eadie-Hofstee plot method; assay type: ADME, cell-based; settings: 0.25 h
[20] = biological target: T3, Solute carrier organic anion transporter family member 2B1; assay: Drug uptake assessed as human OATP2B1 H579Q mutant expressed in Xenopus laevis oocyte mediated drug accumulation at 0.005 to 50 uM after 15 mins by LC-MS/MS analysis relative to wild type protein; assay type: ADME; settings: 0.25 h
[21] = biological target: T2, Solute carrier organic anion transporter family member 2B1; assay: Drug uptake assessed as OATP2B1 low affinity site (unknown origin)-mediated drug uptake in presence of 1 mM pravastatin relative to control; assay type: ADME
[22] = biological target: T1, Solute carrier organic anion transporter family member 2B1; assay: Substrate activity at human OATP2B1 H618Q mutant high affinity site expressed in Xenopus laevis oocytes assessed as Vmax for transporter-mediated drug accumulation per 15 mins per oocyte by Eadie-Hofstee plot method; assay type: ADME, cell-based; settings: 0.25 h
[23] = biological target: Solute carrier organic anion transporter family member 2B1 (Homo sapiens, UniProt O94956, R607A); assay: Drug uptake assessed as human OATP2B1 R607A mutant expressed in Xenopus laevis oocyte mediated drug accumulation at 0.005 to 50 uM after 15 mins by LC-MS/MS analysis relative to wild type protein; assay type: ADME; settings: 0.25 h
Sequence of Solute carrier organic anion transporter family member 2B1 (Homo sapiens, UniProt O94956, R607A) (O94956 whole entry T392I/R607A): as the sequence (O94956 whole entry H219Q/T392I) above, with Q219H, R607A counted along it

[24] = tested on: OATP2B1 H618Q/H579Q double mutant, low affinity site; assay: Substrate activity at human OATP2B1 H618Q/H579Q double mutant low affinity site expressed in Xenopus laevis oocytes assessed as Km for transporter-mediated drug accumulation after 15 mins by Eadie-Hofstee plot method; assay type: ADME, cell-based
[25] = biological target: T2, Solute carrier organic anion transporter family member 2B1; assay: Drug uptake assessed as human OATP2B1 expressed in Xenopus laevis oocyte mediated drug accumulation per oocyte at 50 uM after 15 mins by LC-MS/MS analysis; assay type: ADME; settings: 0.25 h
[26] = biological target: T2, Solute carrier organic anion transporter family member 2B1; assay: Drug uptake assessed as OATP2B1 high affinity site (unknown origin)-mediated drug uptake in presence of 1 mM pravastatin relative to control; assay type: ADME

T1 sequence (O94956 whole entry T392I/H618Q): as the sequence (O94956 whole entry H219Q/T392I) above, with Q219H, H618Q counted along it

Question: Which Vmax/Km [1] does the source give for C[C@]12CC[C@@H]3c4ccc(OS(=O)(=O)O)cc4CC[C@H]3[C@@H]1CCC2=O [ESTRONE SULFURIC ACID] here?
Answer: The Vmax/Km was 0.659 µL.

Question: And the Vmax/Km [2]?
Answer: The Vmax/Km was 0.385 µL.

Question: What about the Drug uptake [3] of the same molecule?
Answer: The Drug uptake was less than 1%.

Question: What about the “fold change (FC)” value [4] of the same molecule?
Answer: Its value is less than 2.

Question: And the Vmax [5]?
Answer: Its Vmax is 19.8 pmol.

Question: And the Drug uptake [6]?
Answer: Its Drug uptake is 17.8%.

Question: And the Km at 0.25 h [7]?
Answer: The Km at 0.25 h was 0.808 µM.

Question: What about the Vmax/Km [8] of the same molecule?
Answer: The Vmax/Km was 0.0987 µL.

Question: What about the Vmax/Km [9] of the same molecule?
Answer: The Vmax/Km was 1.87 µL.

Question: And the Drug uptake [10]?
Answer: The Drug uptake was 14%.

Question: What about the “fold change (FC)” value [11] of the same molecule?
Answer: Its value is less than 2.

Question: What about the Vmax [12] of the same molecule?
Answer: The Vmax was 0.38 pmol.

Question: And the Vmax/Km [13]?
Answer: Its Vmax/Km is 0.269 µL.

Question: And the Vmax [14]?
Answer: The Vmax was 60 pmol.

Question: What about the Drug uptake [15] of the same molecule?
Answer: The Drug uptake was 2.39 µL.

Question: And the Vmax/Km [16]?
Answer: Its Vmax/Km is 0.471 µL.

Question: And the Drug uptake [17]?
Answer: The Drug uptake was less than 1%.

Question: What about the Vmax [18] of the same molecule?
Answer: Its Vmax is 0.867 pmol.

Question: What about the Vmax [19] of the same molecule?
Answer: Its Vmax is 30.9 pmol.

Question: What about the “fold change (FC)” value [20] of the same molecule?
Answer: The value was less than 2.

Question: What about the Drug uptake [21] of the same molecule?
Answer: Its Drug uptake is 79%.

Question: And the Vmax [22]?
Answer: Its Vmax is 0.0402 pmol.

Question: And the “fold change (FC)” value [23]?
Answer: The value was less than 2.

Question: What about the Km at 0.25 h [24] of the same molecule?
Answer: The Km at 0.25 h was 312 µM.

Question: What about the Drug uptake [25] of the same molecule?
Answer: Its Drug uptake is 0.198 µL.

Question: And the Drug uptake [26]?
Answer: Its Drug uptake is 21%.

From ChEMBL document CHEMBL4049381 (Medchemcomm, 2016)
